Measurements: patent publication US4659825A, “Isomeric O-phosphonylmethyl derivatives of enantiomeric and racemic 9-(2,3-dihydroxypropyl)adenine” (Ceskoslovenska akademie, priority 1983, dated 1987)

Test system: Pyrrhocoris apterus L.
Assay: Ovicidal activity (chemosterilizing): inhibition of egg hatching in the first and second egg batch after oral administration to adults of both sexes
Type: in vivo
Details: drinking water
Method: The test animals were freshly emerged adults of Pyrrhocoris apterus L. and the tested compounds were administered as solutions in drinking water. The concentration 1 mg.ml^-1 corresponded to the dose of 1 mg/g/24 h. Each test was performed on a group of 10 males and 10 females and evaluated according to toxicity and hatchability of the eggs of the first and the second egg batches.

Row | SMILES | Inhibition of egg hatching in the first and second egg batch (% inhibition, related to control eggs) (0.1 mg.ml^-1 of water) | Inhibition of egg hatching in the first and second egg batch (% inhibition, related to control eggs) (0.01 mg.ml^-1 of water) | Inhibition of egg hatching in the first and second egg batch (% inhibition, related to control eggs) (0.05 mg.ml^-1 of water) | Inhibition of egg hatching in the first and second egg batch (% inhibition, related to control eggs) (1.0 mg.ml^-1 of water (1 mg.ml^-1 corresponded to the dose of 1 mg/g/24 h))
1 | Nc1ncnc2c1ncn2CC(CO)OCP(=O)(O)O (racemic) [2'-isomer] | 27% |  |  | 
2 | Nc1ncnc2c1ncn2CC(O)COCP(=O)(O)O (racemic) [3'-isomer] | 61% |  |  | 
3 | Nc1ncnc2c1ncn2CC(O)CO (racemic) [compound 3, (RS)-9-(2,3-dihydroxypropyl)adenine] | 37% | 0% | 10% | 100%
